Measurements from PMC11510561, “Synthesis, Urease Inhibition, Molecular Docking, and Optical Analysis of a Symmetrical Schiff Base and Its Selected Metal Complexes” (Molecules, 2024).
Like-named read-outs stand apart in the source and are kept apart here.

Key:
[1] = biological target: T1, urease (Canavalia ensiformis, UniProt P07374); conditions: cited from earlier work
[2] = biological target: T1, urease; test: biochemical
Description: The indophenol method as outlined by Weatherburn was employed to assess urease activity by measuring the produced ammonia. Briefly, incubation of the reaction mixture was carried out at 37 degrees Celsius for half an hour on the microplate reader with 96-well plates. The operated mixture consisted of 20 microliters of the enzyme (from 5 units per ml of stock solution), 20 µL of the tested compound (5 mg/mL stock solution), and 50 microliters of the buffer solution. Thiourea was employed as a reference inhibitor, and percentage inhibition was calculated by […].

[3] = ref [36], read-out: IC50 (urease)

T1 sequence (P07374 whole entry, looked up): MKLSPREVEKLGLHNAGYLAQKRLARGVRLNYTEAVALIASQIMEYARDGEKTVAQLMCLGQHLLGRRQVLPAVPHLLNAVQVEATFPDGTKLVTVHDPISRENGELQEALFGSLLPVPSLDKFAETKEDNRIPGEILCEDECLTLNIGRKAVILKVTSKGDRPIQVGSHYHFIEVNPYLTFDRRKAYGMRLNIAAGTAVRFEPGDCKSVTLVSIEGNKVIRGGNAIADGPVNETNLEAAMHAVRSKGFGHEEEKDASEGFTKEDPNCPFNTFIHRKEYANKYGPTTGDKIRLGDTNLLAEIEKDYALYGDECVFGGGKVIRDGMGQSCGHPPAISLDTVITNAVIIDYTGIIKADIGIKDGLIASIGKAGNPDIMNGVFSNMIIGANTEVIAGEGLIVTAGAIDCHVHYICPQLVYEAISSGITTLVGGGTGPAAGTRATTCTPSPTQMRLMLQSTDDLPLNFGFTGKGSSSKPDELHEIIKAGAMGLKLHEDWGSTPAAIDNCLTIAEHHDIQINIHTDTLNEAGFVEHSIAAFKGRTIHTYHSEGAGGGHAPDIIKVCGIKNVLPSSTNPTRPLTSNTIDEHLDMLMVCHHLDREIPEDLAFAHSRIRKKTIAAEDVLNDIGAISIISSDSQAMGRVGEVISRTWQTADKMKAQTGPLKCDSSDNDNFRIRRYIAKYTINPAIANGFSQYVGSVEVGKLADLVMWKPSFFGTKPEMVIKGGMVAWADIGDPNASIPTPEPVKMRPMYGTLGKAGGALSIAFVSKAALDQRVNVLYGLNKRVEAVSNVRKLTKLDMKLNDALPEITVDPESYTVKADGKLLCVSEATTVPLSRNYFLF

Nn1c(SCC(=O)O)nnc1-c1ccncc1 [HL]
IC50 ([1]; read-out: IC50 (urease), ref [37]): 15.1 ± 2.22 µM

Nn1c(-c2ccncc2)n[nH]c1=S [Compound C00005]
IC50 ([1]; read-out: IC50 (urease), ref [39]): > 100 µM

Nn1c(SCC(=O)O)nnc1-c1ccccn1 [Compound H2L]
IC50 ([1]; read-out: IC50 (urease), ref [38]): 14.7 ± 1.4 µM

NC(=O)NO [Hydroxyurea]
IC50 [1, 3]: 100 µM

NC(N)=S [Thiourea]
IC50 ([2]; indophenol method, 37 degrees Celsius, half an hour, thiourea as reference, read-out: Urease Inhibition IC50): 20.7 µM | IC50 ([1]; ref [35], read-out: IC50 (urease)): 22 µM | IC50 [1, 3]: 23 µM

CC(=O)NO [Acetohydroxamic acid]
IC50 ([1]; ref [37], read-out: IC50 (urease)): 7.9 µM | IC50 ([1]; unit inferred, ref [39], read-out: IC50 (urease), reference drug): 32.1 µM

COc1ccc(-c2n[nH]c(=O)n2/N=C/c2cccc(/C=N/n3c(-c4ccc(OC)cc4)n[nH]c3=O)n2)cc1 [Compound 6, 4,4′-((1E,1′E)-(Pyridine-2,6-diylbis(methanylylidene))bis(azanylylidene))bis(3-(4-methoxyphenyl)-1H-1,2,4-triazol-5(4H)-one)]
melting point: 181 to 183 °C | IC50 [2]: 21.8 ± 1.88 µM
